Legend:
[1] = Acute toxicity tests in mice; details: mouse, in vivo
[2] = system: strains of Staphylococcus aureas; assay: Activity against strains of Staphylococcus aureas; format: cell-based
[3] = Effect of increased inocula; format: cell-based
strains of Pseudomonas = assay: Activity against strains of Pseudomonas; format: cell-based
gram-negative bacteria = assay: Experimental infections in mice with gram-negative bacteria; format: in vivo
[4] = system: strains of Pseudomonas aeruginosa; assay: Experimental infections in mice with strains of Pseudomonas aeruginosa; format: in vivo; details: experimental infection
[5] = Distribution in the bodies of small rodents after subcutaneous injection; format: in vivo
Nephrotoxicity in rats = format: in vivo; details: dosages of 2.0 g/kg
[6] = Serum levels and serum half-life in primates after intramuscular injection; format: in vivo
[7] = Effect of human serum on antibacterial properties; format: cell-based
[8] = Bactericidal action relative to minimum inhibitory concentration; format: cell-based
[9] = General (broad spectrum) antibiotic activity; format: cell-based

Structure (SMILES): C[n+]1ccc(SCC2=C(C(=O)[O-])N3C(=O)[C@@H](NC(=O)/C(=N\OC4(C(=O)O)CCC4)c4csc(N)n4)[C@H]3SC2)cc1 [compound of formula (Ib), (6R,7R)-7-[(Z)-2-(2-aminothiazol-4-yl)-2-(1-carboxycyclobut-1-oxyimino)acetamido]-3-[(1-methylpyridinium-4-yl)-thiomethyl]ceph-3-em-4-carboxylate]
- LD50 [1]: > 1000 mg/kg
- activity against strains of Staphylococcus aureas [2]: useful activity
- effect of increased inocula against the compound [3]: low
- activity against strains of Pseudomonas (strains of Pseudomonas): excellent activity
- treatment of experimental infections in mice with gram-negative bacteria (gram-negative bacteria): successfully treated
- protection against strains of Pseudomonas aeruginosa [4]: excellent protection
- protection compared with the treatment with an aminoglycoside such as amikacin ([4]; versus an aminoglycoside such as amikacin): comparable
- distribution in the bodies of small rodents [5]: well distributed
- therapeutic levels in small rodents [5]: useful therapeutic levels
- nephrotoxicity in rats (Nephrotoxicity in rats): No nephrotoxicity was observed
- half-life in man (probability, from serum half-life in primates) ([6]; man, inferred from serum half-life in primates): comparatively long half-life
- serum levels in primates ([6]; primates, intramuscular injection): high and long lasting serum levels
- antibacterial properties impaired by human serum [7]: not impaired
- bactericidal at concentrations close to the minimum inhibitory concentration [8]: rapidly bactericidal
- general antibiotic properties / antibiotic activity [9]: possesses to an outstanding extent the general antibiotic properties

Structure (SMILES): C[n+]1ccc(SCC2=C(C(=O)[O-])N3C(=O)[C@@H](NC(=O)/C(=N\OC(C)(C)C(=O)O)c4csc(N)n4)[C@H]3SC2)cc1 [(6R,7R)-7-[(Z)-2-(2-aminothiazol-4-yl)-2-(2-carboxyprop-2-oxyimino)acetamido]-3-[(1-methylpyridinium-4-yl)-thiomethyl]ceph-3-em-4-carboxylate]
- general antibiotic properties / antibiotic activity [9]: not dissimilar properties to the compound of formula (Ib)

From patent US4621081A, “Cephalosporin antibiotics” (Glaxo Group Limited, priority 1978, dated 1986)
